Where a name gives a salt, the structure may show the parent alone.
tested on: Aβ1-42 production; experiment: Cellular assay for inhibition of Aβ1-42 production (H4 APP751 SWE clone 8.20); type: cell-based; conditions: 19 h, H4 APP751 SWE clone 8.20 cells, 19 h incubation; class symbols; read-out: Activity Rating (Aβ42 cellular IC50)
Experimental: Cellular Assays for Inhibition of Aβ1-40 and Aβ1-42 Production
H4 cells stably transfected with APP751 containing the Swedish mutation (H4 APP751 SWE clone 8.20, developed at BMS) were maintained in log phase through twice weekly passage at a 1:20 split. […] Following incubation for 19 h in 5% CO2 at 37° C., plates were briefly centrifuged (1000 rpm, 5 min). A 10 μl aliquot from each well was transferred to a second assay plate (Costar 3709) for Aβ40 measurements. Antibody cocktails were freshly prepared by dilution into 40 mM Tris-HCl (pH 7.4) with 0.2% BSA and added to assay plates. For Aβ42 measurements, antibodies specific for the Aβ42 neoepitope (565, developed at BMS; conjugated to the Wallac reagent (Perkin Elmer)) and the N-terminal sequence of Aβ peptide (26D6, developed at SIBIA; conjugated to APC (Perkin Elmer)) were mixed and 20 μl of the mixture was added to each well of the incubated cell plate yielding a final concentration of 0.8 ng/well 565 and 75 ng/well 26D6. For the Aβ40 measurements, antibodies specific for the Aβ40 neoepitope (TSD, developed at BMS; conjugated to the Wallac reagent (Perkin Elmer)) and 26D6 as described above were mixed and 20 μl of the mixture was added to the 10 μl aliquots which had been removed previously from the cell plate yielding a final concentration of 1.6 ng/well TSD and 17.5 ng/well 26D6. Assay plates containing antibodies were sealed with aluminum foil and incubated overnight at 4° C. Signal was determined using a Viewlux counter (Perkin Elmer) and IC50 values determined using curve fitting in CurveMaster (Excel Fit based).

SMILES | IC50
CCN(C)c1nc(Nc2ccc(-n3cnc(Cl)c3)c(OC)c2)nc2c1COCC2c1ccc(F)cc1 (racemic) [Example 62, N2-(4-(4-chloro-1H-imidazol-1-yl)-3-methoxyphenyl)-N4-ethyl-8-(4-fluorophenyl)-N4-methyl-7,8-dihydro-5H-pyrano[4,3-d]pyrimidine-2,4-diamine] | 10 to 100 nM
COc1cc(Nc2nc3c(c(N4CC(F)(F)C4)n2)COCC3c2ccc(F)cc2)ccc1-n1cnc(Cl)c1 (racemic) [Example 63, N-(4-(4-chloro-1H-imidazol-1-yl)-3-methoxyphenyl)-4-(3,3-difluoroazetidin-1-yl)-8-(4-fluorophenyl)-7,8-dihydro-5H-pyrano[4,3-d]pyrimidin-2-amine] | 10 to 100 nM
COc1cc(Nc2nc3c(c(N4CC(F)(F)C4)n2)COC3c2ccc(F)cc2)ccc1-n1cnc(Cl)c1 (racemic) [Example 80, N-(4-(4-chloro-1H-imidazol-1-yl)-3-methoxyphenyl)-4-(3,3-difluoroazetidin-1-yl)-7-(4-fluorophenyl)-5,7-dihydrofuro[3,4-d]pyrimidin-2-amine] | 10 to 100 nM
CNc1nc(Nc2ccc(-n3ncnc3C)c(F)c2)nc2c1COC2c1ccc(F)cc1 (racemic) [Example 82, N2-(3-fluoro-4-(5-methyl-1H-1,2,4-triazol-1-yl)phenyl)-7-(4-fluorophenyl)-N4-methyl-5,7-dihydrofuro[3,4-d]pyrimidine-2,4-diamine, TFA] | 10 to 100 nM
COc1cc(Nc2nc3c(c(N4C[C@@H](C)O[C@@H](C)C4)n2)COC3c2ccc(F)cc2)ccc1-n1cnc(Cl)c1 (mixture of isomers) [Example 84, N-(4-(4-chloro-1H-imidazol-1-yl)-3-methoxyphenyl)-4-((2S,6R)-2,6-dimethylmorpholino)-7-(4-fluorophenyl)-5,7-dihydrofuro[3,4-d]pyrimidin-2-amine, 2 TFA] | 10 to 100 nM
CCNc1nc(Nc2ccc(-n3cnc(Cl)c3)c(OC)c2)nc2c1CCOC2c1ccc(F)cc1 (racemic) [Example 88, N2-(4-(4-chloro-1H-imidazol-1-yl)-3-methoxyphenyl)-N4-ethyl-8-(4-fluorophenyl)-6,8-dihydro-5H-pyrano[3,4-d]pyrimidine-2,4-diamine] | 10 to 100 nM

Further lines, results first:

IC50 | SMILES
10 to 100 nM | Cc1ncnn1-c1ccc(Nc2nc3c(c(N4CC(F)(F)C4)n2)CCC3c2ccc(F)cc2)cc1F (racemic) [Example 16, 4-(3,3-difluoroazetidin-1-yl)-N-(3-fluoro-4-(5-methyl-1H-1,2,4-triazol-1-yl)phenyl)-7-(4-fluorophenyl)-6,7-dihydro-5H-cyclopenta[d]pyrimidin-2-amine]
10 to 100 nM | COc1cc(Nc2nc3c(c(N4CC(F)(F)C4)n2)CCC3c2ccc(F)cc2)ccc1-n1cnc(Cl)n1 (racemic) [Example 17, N-(4-(3-chloro-1H-1,2,4-triazol-1-yl)-3-methoxyphenyl)-4-(3,3-difluoroazetidin-1-yl)-7-(4-fluorophenyl)-6,7-dihydro-5H-cyclopenta[d]pyrimidin-2-amine]
10 to 100 nM | COc1cc(Nc2nc3c(c(N4CCC(F)(F)CC4)n2)CCC3c2ccc(F)cc2)ccc1-n1cnc(Cl)c1 (racemic) [Example 39, N-(4-(4-chloro-1H-imidazol-1-yl)-3-methoxyphenyl)-4-(4,4-difluoropiperidin-1-yl)-7-(4-fluorophenyl)-6,7-dihydro-5H-cyclopenta[d]pyrimidin-2-amine]
10 to 100 nM | COc1cc(Nc2nc3c(c(N4CCC(C(F)(F)F)C4)n2)CCC3c2ccc(F)cc2)ccc1-n1cnc(Cl)c1 (racemic) [Example 41, N-(4-(4-chloro-1H-imidazol-1-yl)-3-methoxyphenyl)-7-(4-fluorophenyl)-4-(3-(trifluoromethyl)pyrrolidin-1-yl)-6,7-dihydro-5H-cyclopenta[d]pyrimidin-2-amine]
1.5 to 9.9 nM | COc1cc(Nc2nc(NCCCO)c3c(n2)C(c2ccc(F)cc2)CC3)ccc1-n1cnc(Cl)c1 (racemic) [Example 43, 3-(2-(4-(4-chloro-1H-imidazol-1-yl)-3-methoxyphenylamino)-7-(4-fluorophenyl)-6,7-dihydro-5H-cyclopenta[d]pyrimidin-4-ylamino)propan-1-ol]
1.5 to 9.9 nM | COc1cc(Nc2nc3c(c(N(C)C)n2)CCC3c2ccc(F)cc2)ccc1-n1cnc(Cl)c1 (racemic) [Example 46, N^2-(4-(4-Chloro-1H-imidazol-1-yl)-3-methoxyphenyl)-7-(4-fluorophenyl)-N^4,N^4-dimethyl-6,7-dihydro-5H-cyclopenta[d]pyrimidine-2,4-diamine]
10 to 100 nM | CCN(C)c1nc(Nc2ccc(-n3cnc(Cl)c3)c(OC)c2)nc2c1COCC2c1ccccc1 (racemic) [Example 52, N^2-(4-(4-Chloro-1H-imidazol-1-yl)-3-methoxyphenyl)-N^4-ethyl-N^4-methyl-8-phenyl-7,8-dihydro-5H-pyrano[4,3-d]pyrimidine-2,4-diamine]
10 to 100 nM | COc1cc(Nc2nc3c(c(N(C)C)n2)COCC3c2ccccc2)ccc1-n1cnc(Cl)c1 (racemic) [Example 53, N^2-(4-(4-Chloro-1H-imidazol-1-yl)-3-methoxyphenyl)-N^4,N^4-dimethyl-8-phenyl-7,8-dihydro-5H-pyrano[4,3-d]pyrimidine-2,4-diamine]
10 to 100 nM | CNc1nc(Nc2ccc(-n3cnc(C)n3)c(OC)c2)nc2c1COCC2c1ccc(F)cc1 (racemic) [Example 54, 8-(4-fluorophenyl)-N2-(3-methoxy-4-(3-methyl-1H-1,2,4-triazol-1-yl)phenyl)-N4-methyl-7,8-dihydro-5H-pyrano[4,3-d]pyrimidine-2,4-diamine]
10 to 100 nM | CCNc1nc(Nc2ccc(-n3cnc(C)n3)c(OC)c2)nc2c1COCC2c1ccc(F)cc1 (racemic) [Example 55, N4-ethyl-8-(4-fluorophenyl)-N2-(3-methoxy-4-(3-methyl-1H-1,2,4-triazol-1-yl)phenyl)-7,8-dihydro-5H-pyrano[4,3-d]pyrimidine-2,4-diamine]
10 to 100 nM | CCNc1nc(Nc2ccc(-n3cnc(Cl)c3)c(OC)c2)nc2c1COCC2c1ccc(F)cc1 (racemic) [Example 56, N2-(4-(4-chloro-1H-imidazol-1-yl)-3-methoxyphenyl)-N4-ethyl-8-(4-fluorophenyl)-7,8-dihydro-5H-pyrano[4,3-d]pyrimidine-2,4-diamine]
10 to 100 nM | CCNc1nc(Nc2ccc(-n3ncnc3C)c(F)c2)nc2c1COCC2c1ccc(F)cc1 (racemic) [Example 59, N4-ethyl-N2-(3-fluoro-4-(5-methyl-1H-1,2,4-triazol-1-yl)phenyl)-8-(4-fluorophenyl)-7,8-dihydro-5H-pyrano[4,3-d]pyrimidine-2,4-diamine]
1.5 to 9.9 nM | CNc1nc(Nc2ccc(-n3cnc(Cl)c3)c(OC)c2)nc2c1COCC2c1ccc(F)cc1 (racemic) [Example 60, N2-(4-(4-chloro-1H-imidazol-1-yl)-3-methoxyphenyl)-8-(4-fluorophenyl)-N4-methyl-7,8-dihydro-5H-pyrano[4,3-d]pyrimidine-2,4-diamine]
10 to 100 nM | COc1cc(Nc2nc3c(c(N(C)C)n2)COCC3c2ccc(F)cc2)ccc1-n1cnc(Cl)c1 (racemic) [Example 61, N2-(4-(4-chloro-1H-imidazol-1-yl)-3-methoxyphenyl)-8-(4-fluorophenyl)-N4,N4-dimethyl-7,8-dihydro-5H-pyrano[4,3-d]pyrimidine-2,4-diamine]

same assay, conditions: 19 h, H4 APP751 SWE clone 8.20 cells, 19 h incubation; read-out: Activity Rating (Aβ42 cellular IC50), numeric value

IC50 | SMILES
13 nM | CNc1nc(Nc2ccc(-n3cnc(C)n3)c(OC)c2)nc2c1CCC2c1ccc(F)cc1 (racemic) [Example 44, 7-(4-fluorophenyl)-N2-(3-methoxy-4-(3-methyl-1H-1,2,4-triazol-1-yl)phenyl)-N4-methyl-6,7-dihydro-5H-cyclopenta[d]pyrimidine-2,4-diamine]

same assay, conditions: H4 APP751 SWE clone 8.20 cells, 19 h incubation; class symbols; TFA; read-out: Activity Rating (Aβ42 cellular IC50)

IC50 | SMILES
1.5 to 9.9 nM | COc1cc(Nc2nc(N[C@H](C)C3CC3)c3c(n2)C(c2ccc(F)cc2)CC3)ccc1-n1cnc(Cl)c1 (mixture of isomers) [Example 49, N2-(4-(4-chloro-1H-imidazol-1-yl)-3-methoxyphenyl)-N4-((R)-1-cyclopropylethyl)-7-(4-fluorophenyl)-6,7-dihydro-5H-cyclopenta[d]pyrimidine-2,4-diamine, 2 TFA]
1.5 to 9.9 nM | COc1cc(Nc2nc(N[C@@H](C)C3CC3)c3c(n2)C(c2ccc(F)cc2)CC3)ccc1-n1cnc(Cl)c1 (mixture of isomers) [Example 50, N2-(4-(4-chloro-1H-imidazol-1-yl)-3-methoxyphenyl)-N4-((S)-1-cyclopropylethyl)-7-(4-fluorophenyl)-6,7-dihydro-5H-cyclopenta[d]pyrimidine-2,4-diamine, TFA]
10 to 100 nM | COc1cc(Nc2nc3c(c(N4CC[C@@H](F)C4)n2)COC3c2ccc(F)cc2)ccc1-n1cnc(Cl)c1 (mixture of isomers) [Example 83, N-(4-(4-chloro-1H-imidazol-1-yl)-3-methoxyphenyl)-7-(4-fluorophenyl)-4-((R)-3-fluoropyrrolidin-1-yl)-5,7-dihydrofuro[3,4-d]pyrimidin-2-amine, 2 TFA]

From patent US8637525B2, “Compounds for the reduction of beta-amyloid production” (Bristol-Myers Squibb Company, priority 2009, dated 2014)
